Our source for the melting point values is a melting point compilation (Tetko et al.; mined from patent text by program, amines drawn as free bases though some values may be those of a salt).

As a reminder, the melting point is the temperature of the solid-liquid transition. Consider `CC(C)(C)OC(=O)N1CC2CC(CN(CC(O)COc3ccccc3)C2)C1` (centres undefined), for which the melting point fell in the range of 86 to 88 °C.

`CNC(=S)C1(c2cc(C)ccn2)CCCS1` (centres undefined) displayed a melting point of 181 °C.

`Nc1ncc(-c2cnc3ccc(-c4ccc(OCC5(NC(=O)OCc6ccccc6)COC5)cc4)nn23)cc1C(F)(F)F` registered a melting point of 202 to 203 °C.

Consider `COC(=O)c1cc2cc(OC)c(OC)cc2c(-c2ccnc(-n3c(=O)cc(C(=O)N4CCOCC4)c4ccccc43)c2)c1C(=O)OC`, for which the melting point is 247 to 249 °C.

In the case of `COc1ccc(C(=CF)C(N)C(=O)O)cc1O` (centres undefined), the melting point came to 214 °C.

As to `O=C(Sc1ccccn1)c1ccccc1`, the melting point lay in the range of 48 to 50 °C.

In turn, `CCOC(=O)CON(C)C(=S)Nc1ccc2c(c1)CCC2` gave a melting point of 69 to 71 °C.

The compound `CC1(C)OC(=O)C(Oc2ccccc2)=C1c1ccc(S(C)(=O)=O)cc1` came in with a melting point of 135 to 136 °C.

Compound `Cc1cc(C)c(C(CO)c2ccc(Br)cc2)c(O)c1C` (centres undefined) had a melting point of 114 to 115 °C.

The compound `CC1(C)C(C=CC(=O)O)C1C(=O)OCc1ccccc1` (centres undefined) showed a melting point of 69 °C.

With `Cc1ccc(CC(CS)C(=O)Nc2cccc(C(=O)O)c2C)cc1` (centres undefined), the melting point lay in the range of 194 to 196 °C.

Take `COc1cc2c(cc1Br)-c1c(-c3cccs3)c3c(n1CC2)C(=O)N(C(C)C)CCNC3`: the melting point was 201 to 203 °C.

The compound `O=C1C[C@@H](Nc2ncnc3c2ncn3[C@@H]2O[C@H](CO)[C@@H](O)[C@H]2O)C(=O)N1` showed a melting point of 167 to 169 °C.

`CC(=O)N1CC(CCN2CCC(c3ccc(C(F)(F)F)cc3)CC2)c2ccccc21` (centres undefined) yielded a melting point of 98 to 100 °C.

As to `NCc1cc2c(N)nccc2o1`, the melting point lay within 142 to 144 °C.

With `CSc1cc(SC)c(SC)cc1SC`, the melting point was in the range of 127 to 129 °C.

`COCCN(CCOC)C(=O)c1ccc([N+](=O)[O-])cc1[N+](=O)[O-]` yielded a melting point of 89 °C.

With `Cc1ccc(S(=O)(=O)N(c2ccc(Cl)cc2C(=O)O)C(C)C)cc1`, the melting point lay within 175 to 176 °C.

In the case of `CC(=O)OC1CSC(Oc2ccc(-c3cccnc3)nc2)C(OC(C)=O)C1OC(C)=O` (centres undefined), the melting point is 196 °C.

Compound `NS(=O)(=O)C=C(c1ccccc1)c1ccccc1` gave a melting point of 134 to 135 °C.

The compound `CC(C)c1csc(/C=C/c2cccc(NC(=O)Cc3cccc(CC(=O)O)c3)c2)n1` came in with a melting point of 122 to 124 °C.

For the compound `CCCC(CCC)n1nnc2c(Nc3c(Cl)cc(OC)cc3OC)nc(C)cc21`, the melting point was 157 to 158 °C.

With `COc1nccc(C)c1NC(=O)c1cccnc1NC1CC1`, the melting point was in the range of 151 to 152 °C.

As to `CO[C@@H]1[C@H](O)[C@@H](CO)O[C@H]1n1cnc2c(N[C@H](C)Cc3sccc3Cl)ncnc21`, the melting point lay within 75 to 76 °C.

For the compound `C#CCN(C(=O)CN)C(=O)OC`, the melting point fell in the range of 77 to 80 °C.

Compound `COc1ccc2c(c1)C(=O)Cc1c(cccc1C(=O)O)S2` registered a melting point of 157 to 160 °C.

The compound `CCOc1cn(C)cc(-c2cccc(C(F)(F)F)c2)c1=S` registered a melting point of 153 to 155 °C.

Compound `CC1(C)C=C(C(=O)O)CC1` displayed a melting point of 67 to 69 °C.

`O=C(O)c1ccccc1Sc1ccc([N+](=O)[O-])cc1[N+](=O)[O-]` returned a melting point of 179 to 181 °C.

As for `C=CCN1C2CCC3C1CCC2N3C(c1ccc(C(=O)N(CC)CC)cc1)c1cccc(O)c1` (centres undefined), the melting point fell in the range of 147 to 150 °C.

In the case of `Clc1nnccc1-c1c(-c2ccccc2)nn2ccccc12`, the melting point fell in the range of 208 to 210 °C.

Compound `Cc1c(NC(=O)c2ccc(OC[C@@H]3CCCO3)cc2F)ccc2cc(CNCC(C)(C)O)cnc12` registered a melting point of 167 to 168 °C.

Compound `Cc1cccc(C(=O)OC2CCN(Cc3ccccc3)CC2)c1` returned a melting point of 45 to 46 °C.

Turning to `C=CCOc1ccc2c(C)c(F)c(=O)oc2c1C`, the melting point turned out to be 117 °C.

Regarding `CCCC12CCC(=O)C=C1c1c(cc(OC)c(Cl)c1Cl)C2=O` (centres undefined), the melting point fell in the range of 167 to 169 °C.

Take `CC(=O)N1Cc2cccn2N(C)c2ccncc21`: the melting point is 125 to 130 °C.

The compound `CC1=C(c2ccncc2)SC(O)C(=O)N1` (centres undefined) returned a melting point of 214 °C.

The compound `CC(C)SN(C)C(=O)Nc1ccc(Cl)c(Cl)c1` registered a melting point of 65 °C.

Turning to `COc1ccc(C[C@@H](NC(=O)OCc2ccccc2)[C@H](O)C(=O)O)cc1`, the melting point is 160 to 162 °C.

Take `Cc1cc(C)cc(Cc2c(C(C)C)c(=O)[nH]c(=O)n2C/C=C/c2ccccc2)c1`: the melting point was in the range of 180 to 181 °C.

As for `Cc1nnc2n1-c1sc(Cl)cc1C(c1ccccc1C(F)(F)F)=NC2`, the melting point lay within 193 to 195 °C.

Take `COc1ccc(-c2nc(CCl)cs2)cc1`: the melting point was in the range of 125 to 128 °C.

Consider `CCOC(=O)C1=CC(OCC)(C(C)C)N(c2ccc(Cl)cc2Cl)N1` (centres undefined), for which the melting point was in the range of 105 to 110 °C.

Compound `C[C@H](NC(=O)OC(C)(C)C)C(=O)N1CCC[C@H]1C(=O)O` returned a melting point of 155 to 157 °C.

Regarding `Cc1[nH]c(-c2cccc(C(F)(F)F)c2)nc1C=O`, the melting point was 180 °C.

On to `CCn1cc(C(=O)O)c(=O)cc1-c1cccc(Cl)c1`, for which the melting point fell in the range of 212 to 213 °C.

Turning to `CNS(=O)(=O)OCC(=O)N(c1c(C)ccc2ccccc12)C1CCOC1=O` (centres undefined), the melting point fell in the range of 190 to 194 °C.

Compound `COc1ccc(-c2nc(CCl)co2)s1` came in with a melting point of 64 to 65 °C.

With `O=C(O)C=Cc1cn(-c2ccccc2)nc1-c1ccc(Cl)cc1`, the melting point fell in the range of 227 to 228 °C.

`CNCC1Cc2cc(F)cc(-c3c(Cl)cccc3Cl)c2O1` (centres undefined) came in with a melting point of 140 to 142 °C.

Compound `COc1ccc(C(=O)c2cc3cc(Br)ccc3o2)cc1` displayed a melting point of 143 to 146 °C.

In turn, `CCN1CCCC1CNC(=O)c1cc(S(=O)(=O)N(C)C)cc2c1OCCO2` (centres undefined) returned a melting point of 146 to 148 °C.

`COc1ccc(F)cc1C(C)(C)CC(O)(CN1CC(=O)Nc2ccccc21)C(F)(F)F` (centres undefined) showed a melting point of 69 to 71 °C.

As to `Clc1cc2nc(NC3CC3)[nH]c2cc1Cl`, the melting point was in the range of 223 to 225 °C.

The compound `CNN(NC)C(=O)Nc1cccc2c1C(=O)c1c-2n[nH]c1-c1ccco1` had a melting point of 202 °C.

`CCC1(O)CCC2C3CCC4=C(CC=C(OC)C4)C3CCC21C` (centres undefined) displayed a melting point of 131 to 134 °C.

`CCOC(=O)N=C1NCC(Oc2ccc(C(Cc3cc4cc(C#N)ccc4s3)C(=O)OCC)cc2)CN1` (centres undefined) showed a melting point of 179 to 182 °C.

`COc1cc(CN[C@@H](C(=O)N[C@H](C(=O)NCc2ccc(OC)cc2O)C(C)C)[C@H](O)[C@H](Cc2ccccc2)NC(=O)OC(C)(C)C)cc(OC)c1` displayed a melting point of 138 °C.

On to `Cc1ccc(S(=O)(=O)OCC2COc3ccc4nc(C)c(C)nc4c3O2)cc1` (centres undefined), for which the melting point fell in the range of 153 to 155 °C.

`N#CC(O)c1cccc2c(-c3ccccc3)c([N+](=O)[O-])oc12` (centres undefined) showed a melting point of 137 to 139 °C.

As for `CC(=O)[C@H]1C[C@H](C(=O)OC(C)(C)C)N(C(=O)CNC(=O)Nc2cccc(C(=O)O)c2)[C@@H]1c1ccccc1` (racemic), the melting point was 145 °C.

For `NC(=O)C12CCCN(CCC1)C2`, the melting point fell in the range of 172 to 175 °C.

`COc1cc(C)c(C(=O)c2ccc(OCc3nc(-c4ccccc4)oc3C)cc2)c(O[C@H](C)C(=O)O)c1` registered a melting point of 122 to 123 °C.

In turn, `CC1(C)OC(=O)Nc2ccc(-c3sccc3C#N)cc21` yielded a melting point of 200 to 202 °C.
